Like-named read-outs stand apart in the source and are kept apart here.
Experiments:
[1] = 0.1, 0.5 and 1 mg/kg/day; cited from earlier work
[2] = test system: organ-cultured human skin; assay: RA-induced epidermal hyperplasia in human skin organ culture; format: cell-based
From the text: Immediately upon biopsy, the tissue was immersed in culture medium consisting of Keratinocyte Basal Medium (KBM) (Clonetics, Inc., Walkersville, Md.). KBM is a low-Ca^2+, serum-free modification of MCDB-153 medium optimized for high-density keratinocyte growth (Wille J, Jr., Pittelkow M R, Shipley G D, Scott R E. Integrated control of growth and differentiation of normal human prokeratinocytes cultured in serum-free medium: clonal analyses, growth kinetics, and cell cycle studies. J Cell Physiol 1984;121:31-44). It was supplemented with CaCl2 to bring the final Ca^2+ concentration to 1.4 mM. After transport to the laboratory on ice, the biopsies were incubated in a 96-well dish containing 200 μL of Ca^2+-supplemented KBM with or without additional treatments. Cultures were incubated at 37° C. in an atmosphere of 95% air and 5% CO2. Incubation was for 8 days, with change of medium containing the various treatments every 2 days. […] For the experiment shown in FIG. 4, human skin keratome biopsies were subjected to organ culture in the presence or absence of 3 μM RA followed by RNA isolation and Northern blotting as previously described (Stoll SW, Elder J T. Retinoid regulation of heparin-binding EGF-lke growth factor gene expression in human keratinocytes and skin. Exp Dermatol, 1998;7:391-397), except that the concentration of Ca^2+ was adjusted to 0.1 mM or 1.4 mM by the addition of CaCl2. cDNA insert probes for detection of HB-EGF and 36B4 were prepared and labeled by random priming, as previously described (Stoll and Elder, Supra., 1998).

[3] = test system: human epidermal keratinocytes; assay: Proliferation assay, keratinocytes in monolayer culture; format: cell-based
Method: (§1) Normal human epidermal keratinocytes were obtained from skin biopsies and maintained in monolayer culture using Keratinocyte Growth Medium (KGM) (Clonetics, Inc., Walkersville, Md.). KGM contains the same basal medium as KBM, but is further supplemented with a mixture of growth factors including 0.1 ng/mL EGF, 0.5 μg/mL insulin, and 2% bovine pituitary extract. In some experiments, the HaCaT line of immortalized human epidermal keratinocytes (Boukamp P, Petrussevska R T, Breitkreutz D, Hornung J, Markham A, Fusenig N E. Normal keratinization in a spontaneously immortalized aneuploid human keratinocyte cell line. J Cell Biol, 1988;106:761-771) was used in place of normal keratinocytes. We (J.V., S.W.S., and J.T.E., unpublished observations) and others (Chaturvedi V, Qin J Z, Denning M F, Choubey D, Diaz M O, Nickoloff B J. Apoptosis in proliferating, senescent, and immortalized keratinocytes. J Biol Chem, 1999;274:23358-23367) have observed that HaCaT cells grow well in KGM. Therefore, HaCaT cells and NHK were propagated in exactly the same manner. Fibroblasts obtained from human skin were grown in monolayer culture using Dulbecco's modified minimal essential medium supplemented with nonessential amino acids and 10% fetal bovine serum (DMEM-FBS). Both keratinocytes and fibroblasts were maintained at 37° C. in an atmosphere of 95% air and 5% CO2. Cells were sub-cultured by exposure to trypsin/EDTA and used at passage 2-3.
For proliferation assays, cells were initially plated at 4×10^4 cells per well of a 24-well dish in growth medium (KGM for keratinocytes or DMEM-FBS for fibroblasts). After allowing cells to attach for 1 to 2 hours, the medium was removed and the cells washed twice in KBM (keratinocytes) or Ca^2+-supplemented KBM (fibroblasts). The cells were then incubated for 48 hours with or without additional reagents as indicated in Results. At the end of the incubation period, the cells were harvested by trypsinization and enumerated using an automated particle counter (Coulter Electronics, Hialeah, Fla.).

[4] = test system: tyrosine kinases residing outside the c-erbB family; settings: 1 μM; cited from earlier work
[5] = test system: human epidermal keratinocytes; assay: 51Cr-release cytotoxicity assay; format: cell-based; settings: for IC50: read-out: Cytotoxicity (ID50)
Method: (§2) A ^51Cr-release assay was used to measure cytotoxic effects of the irreversible c-erbB-RTK antagonist. For this assay, keratinocytes were initially plated at 2×10^4 cells per well of a 24-well dish in growth medium (KGM) and treated with 1 μCi per well of ^51Cr. After allowing cells to incorporate ^51Cr for one day, the non-incorporated isotope was removed and the cells washed twice in KBM. The cells were then incubated for 18 hours with or without treatments as indicated in Results. At the end of the incubation period, the percentage of Incorporated ^51Cr that was released into the culture medium was determined.

[6] = 51Cr-release cytotoxicity assay; format: cell-based, human; settings: human, human epidermal keratinocytes; KBM + Ca2+; read-out: Cytotoxicity (ID50)
Method: as §2

[7] = test system: human dermal fibroblasts; assay: RA-induced survival of dermal fibroblasts in low-Ca2+ monolayer culture; format: cell-based; settings: 3 μM RA, 48 hours, KBM 0.15 mM CaCl2
Method: as §1, with “Cells were sub-cultured by exposure to trypsin/EDTA and used at passage 2-3.” left out

[8] = test system: HB-EGF mRNA; assay: HB-EGF mRNA in human skin organ culture (Northern blotting); format: cell-based; settings: 3 μM RA, 8 hours
From the text: Immediately upon biopsy, the tissue was immersed in culture medium consisting of Keratinocyte Basal Medium (KBM) (Clonetics, Inc., Walkersville, Md.). KBM is a low-Ca^2+, serum-free modification of MCDB-153 medium optimized for high-density keratinocyte growth (Wille J, Jr., Pittelkow M R, Shipley G D, Scott R E. Integrated control of growth and differentiation of normal human prokeratinocytes cultured in serum-free medium: clonal analyses, growth kinetics, and cell cycle studies. J Cell Physiol 1984;121:31-44). It was supplemented with CaCl2 to bring the final Ca^2+ concentration to 1.4 mM. After transport to the laboratory on ice, the biopsies were incubated in a 96-well dish containing 200 μL of Ca^2+-supplemented KBM with or without additional treatments. Cultures were incubated at 37° C. in an atmosphere of 95% air and 5% CO2. Incubation was for 8 days, with change of medium containing the various treatments every 2 days. […]

[9] = examined at 1 μM, 5 μM and 10 μM

CC1=C(/C=C/C(C)=C/C=C/C(C)=C\C(=O)O)C(C)(C)CCC1 [Accutane, 13-cis-retinoic acid]
clearing of disease [1]: all dosages provided initial clearing of disease

CNc1cc2c(Nc3cccc(Br)c3)ncnc2cn1 [PD 158780, N^4-(3-Bromo-phenyl)-N^6-methyl-pyrido[3,4-d]pyrimidine-4,6-diamine]
antiproliferative activity [2, 9]: detected only at 5 and 10 μM | effects on RA-stimulated hyperplasia [2, 9]: reversed the effects of RA

C=CC(=O)Nc1cc2c(Nc3cccc(Br)c3)ncnc2cc1OCCCN1CCOCC1 [PD 169540, N-[4-(3-bromo-phenylamino)-7-(3-morpholin-4-yl-propoxy)-quinazolin-6-yl]-acrylamide]
Inhibition of Growth (ID50) ([3]; +EGF): 6 nM | Inhibition of Growth (ID50) ([3]; +insulin/pituitary extract): 900 nM | Inhibition of Growth (ID50) ([3]; KBM + Ca2+): 8 nM | relative potency, organ culture hyperplasia and monolayer proliferation ([3]; comparison of the two c-erbB-RTK antagonists): clearly the more potent compound in both assays | effect on tyrosine kinases residing outside the c-erbB family [4]: without effect | IC50 ([5]; +EGF): > 1000 nM | IC50 ([5]; +insulin/pituitary extract): > 1000 nM | cytotoxicity by 51Cr release ([5]; any of the concentrations tested): virtually no cytotoxicity | IC50 at 18 h [6]: > 1000 nM | reversal of RA-induced epidermal hyperplasia ([2]; 0.5 μM and 0.1 μM inhibitor, 3 μM RA): also effective, albeit less so than 1 μM | reversal of RA-induced epidermal hyperplasia ([2]; 1 μM inhibitor, 3 μM RA): reversed the effects of 3 μM RA | RA-stimulated epidermal thickness by keratinocyte counts (keratinocytes/block) ([2]; RA + inhibitor, FIG. 2): reduction in hyperplasia | reversal of RA-induced epidermal hyperplasia ([2]; concentrations lower than 0.1 μM): no effect

CC1=C(/C=C/C(C)=C/C=C/C(C)=C/C(=O)O)C(C)(C)CCC1 [RA, all-trans retinoic acid, reference compound]
fibroblast survival [7]: markedly and significantly promoted fibroblast survival | HB-EGF mRNA induction ([8]; 1.4 mM Ca2+): clearly dominant over the inhibitory effect of 1.4 mM Ca^2+ | HB-EGF mRNA induction ([8]; low-Ca2+ (0.1 mM)): strongly potentiated | number of Ki-67-positive cells ([2]; 3 μM RA, 8 days): much larger number of Ki-67-positive cells than did the controls | epidermal thickness (number of epidermal keratinocytes) ([2]; 3 μM RA, 8 days, 1.4 mM Ca2+): The epidermis was thickened | preservation of epithelial viability ([2]; RA added to low-Ca2+ organ cultures): up to 12 days

Source: US20040198752A1, “Method for inhibiting retinoid skin damage” (priority 2001, published 2004)
